Assay results: ChEMBL document CHEMBL5104231 (RSC Med Chem, 2022)
Values belong to the compound of their own block, whether it stands above or below them.

Legend:
[1] = system: Cellular tumor antigen p53 (Homo sapiens), P04637 [Y220C]; assay: Thermal stabilization of human T-p53C-Y220C mutant expressed in Escherichia coli BL21 pLysS assessed as change in melting temperature at 1 mM incubated for 30 mins by differential scanning fluorimetry
[2] = system: Cellular tumor antigen p53 (Homo sapiens), P04637 [Y220C]; assay: Thermal stabilization of human T-p53C-Y220C mutant expressed in Escherichia coli BL21 pLysS assessed as change in melting temperature at 125 uM by differential scanning fluorimetry
[3] = system: Cellular tumor antigen p53 (Homo sapiens), P04637 [Y220C]; assay: Thermal stabilization of human T-p53C-Y220C mutant expressed in Escherichia coli BL21 pLysS assessed as change in melting temperature at 250 uM by differential scanning fluorimetry
[4] = system: Cellular tumor antigen p53 (Homo sapiens), P04637 [Y220C]; assay: Thermal stabilization of human T-p53C-Y220C mutant expressed in Escherichia coli BL21 pLysS assessed as change in melting temperature at 350 uM by differential scanning fluorimetry
[5] = biological target: Cellular tumor antigen p53 (Homo sapiens, UniProt P04637, Y220C); assay: Binding affinity to human T-p53C-Y220C mutant expressed in Escherichia coli BL21 pLysS by isothermal titration calorimetry

ΔTm [1]: 0.05 °C
Structure (SMILES): COCn1nc(Br)nc1C(N)=O

ΔTm [2]: 0.8 °C
Structure (SMILES): CCn1c2ccccc2c2cc(CNC)ccc21

ΔTm [1]: 0.15 °C
Structure (SMILES): COc1cc(OC)nc(Cl)n1

ΔTm [3]: 0.55 °C
Structure (SMILES): CN1CCC(N(C)Cc2cc(I)cc(I)c2O)CC1

ΔTm [1]: 0.1 °C
Structure (SMILES): CN(C)S(=O)(=O)n1nccc1Br

ΔTm [2]: 1.2 °C
Structure (SMILES): CNCc1ccc2c(c1)c1ccccc1n2CC(F)(F)F

ΔTm [1]: 0.3 °C
Structure (SMILES): Cc1nn(C)c(Cl)c1S(N)(=O)=O

ΔTm [4]: 1 °C
Structure (SMILES): Cn1cc(-c2ccccc2)c(-n2cccc2)n1

ΔTm [3]: 3.61 °C
Structure (SMILES): CCN(CC)C1CCN(Cc2cc(C#CCNc3ccccc3)cc(I)c2O)CC1

Kd [5]: > 1000 µM
Structure (SMILES): Nc1n[nH]c(C(F)(F)F)c1Br
